Columns and labels:
[1] = Formulability of P18 in shampoo base formulations; type: physicochemical; settings: 10 mM P18 in formulations 31-1 and 31-2, 5 mM in 31-3; pH 6-7
Description: The formulability of the peptide P18 was tested in three different shampoo base formulations. For this purpose, the formulations with the following compositions were first produced:
The components were mixed and dissolved. NaOH was used to adjust the pH to pH 6-7. Thereafter, two 100 mM solutions of peptide P18 (P18 sequence H-KWKLFKKIPKFLHLAKKF-NH2) were prepared. DMSO was the solvent for one solution; it was water for the other solution. The appropriate volume of the 100 mM P18 peptide solution was added to each of the formulations, such that the final concentration in formulations 31-1 and 31-2 was 10 mM, and the final concentration of peptide P18 in formulation 31-3 was 5 mM.

M. furfur DSM 6170 = test: Comparison of the efficacy of P18 and AFPP in a shampoo formulation (CFU); type: cell-based, Malassezia furfur; settings: 1:10 with culture medium
Description: In order to study the efficacy of AFPP compared to P18 (SEQ ID NO. 3; sequence: KWKLFKKIPKFLHLAKKF-NH2 (Bachem AG, Switzerland)) in a shampoo formulation, the experiment described in Example 24 was repeated with a shampoo formulation.
Both peptides were present as 2% (w/w) solutions in phosphate buffer (10 mM sodium phosphate, pH 7.5, 100 mM NaCl).
Peptide solution with a final concentration of 0.1% and 0.2% was added to the shampoo formulation. The resulting formulations were stirred over 16 hours in order to obtain homogeneous solutions. The same procedure was repeated with equivalent volumes of the phosphate buffer in order to rule out any influence of the phosphate buffer on the test results.
The growth test was effected as follows: a shake culture containing M472 Pityrosporum medium was inoculated with M. furfur DSM 6170 (DSMZ) and incubated with shaking at 30° C. and 200 rpm overnight.
For each test mixture, a 1.5 ml reaction vessel was filled with Pityrosporum medium and inoculated with the M. furfur overnight culture to give a start OD of 0.1, measured at 600 nm.
The growth of the following test mixtures was monitored: • M. furfur suspension and addition of phosphate buffer in shampoo formulation in an equivalent amount to the volumes which were added with peptide-shampoo solution (in order to rule out any influence of the phosphate buffer on the effect of the active peptides at concentrations in the shampoo formulation of 0.1% or 0.2%) • M. furfur suspension and shampoo formulation with a P18 concentration of 0.1% • M. furfur suspension and shampoo formulation with a P18 concentration of 0.2% • M. furfur suspension and shampoo formulation with an AFPP concentration of 0.1% • M. furfur suspension and shampoo formulation with a final AFPP concentration of 0.2%
The ratio of the shampoo formulation to the M. furfur culture medium was 1:10 in all test mixtures (shampoo formulation: M. furfur culture medium). The reaction volume was 1 ml.
The growth of M. furfur in the test mixtures was observed over a period of 20 minutes. For this purpose, the mixtures were diluted in M472 medium in a ratio of 1:10 after 10 minutes and 20 minutes, and then 10 μl were plated out. The CFU (colony forming units) were determined by counting after incubation at 30° C. for 6 days.
The experiments were effected in double determination and were independently repeated at least once.

C. albicans (DSM 11948) = test: P18 in pharmaceutical base formulation (CFU); type: cell-based, Candida albicans; settings: mixed 1:9 with suspension
Description: The aim of the experiment was to study the effect of a pharmaceutical base formulation with the P18 peptide ingredient (P18 sequence H-KWKLFKKIPKFLHLAKKF-NH2 (Bachem AG, Switzerland)). For this purpose, the following base formulation was used: […]
1% hydroxycellulose 10% propylene glycol made up with water.
Based on the base formulation, formulations with rising P18 concentrations (500 ppm to 10 000 ppm) were prepared from a 20% concentrate solution.
The effect of the formulations on C. albicans (DSM 11948) was studied.
YM growth medium (Becton, Dickinson and Company, Sparks, USA) 3 g of yeast extract 3 g of malt extract 5 g of peptone 10 g of dextrose make up to 1 liter, set pH 6.2
The growth test was effected as follows: 5 ml of YM medium were inoculated with C. albicans and incubated at 30° C. and 200 rpm overnight.
1.5 ml reaction vessels were each filled with 1 ml of YM medium and inoculated with the C. albicans suspension from the overnight culture such that an optical density—measured at 600 nm—of 0.1 was obtained at the start of the experiment. The resulting C. albicans suspension was mixed in a ratio of 1:9 (formulation: C. albicans suspension) with the formulations. 1 μl of the culture was diluted with 20 μl of YM medium after 5 minutes, 10 minutes, 20 minutes and 60 minutes, and then plated out. After incubation over 24 hours, the colonies on the plates were counted.

M. furfur = test: Kinetics of the effect of P18 in the presence of a shampoo base formulation (CFU); type: cell-based, Malassezia furfur; settings: 10% (v/v) shampoo base formulation 31-3; 0.23-2.3 g/l; 5 min to 24 h
Description: The experiments were conducted as follows: [table] The Texapon NSO and Tego Betain L7 components were mixed and dissolved. NaOH was used to adjust the pH to pH 6-7. The growth test was effected as follows: a shake culture containing […]. furfur and incubated with shaking at 30° C. and 200 rpm overnight. A 96-well microtiter plate was filled with 100 μl per well of […]. furfur suspension from the overnight culture. The M. furfur suspension was adjusted at the start of the experiment to an optical density, measured at 600 nm, of 0.1. 10% (v/v) of shampoo base formulation 31-3 was added to the M. furfur suspension. P18 peptide was dissolved with a concentration of 230 g/l in water. […] The microtiter plate was incubated with shaking at 30°.

For “H-KWKLFKKIPKFLHLAKKF-NH2 [P18, H-KWKLFKKIPKFLHLAKKF-NH2]”, which “Appearance of the formulations with P18” value [1] is on record?
The value was “clear and homogenous”.

What about the “Colony forming units after the incubation time specified” value (“Colony forming units” below) (M. furfur DSM 6170; 0.1% in the shampoo formulation, 10 minutes) of the same substance?
The value was 80 ± 10 CFU.

And the “Colony forming units” value (M. furfur DSM 6170; 0.1% in the shampoo formulation, 20 minutes)?
Its value is 38 ± 21 CFU.

What about the “Colony forming units” value (M. furfur DSM 6170; 0.2% in the shampoo formulation, 10 minutes) of the same substance?
The value was 21 ± 17 CFU.

And the “Colony forming units” value (M. furfur DSM 6170; 0.2% in the shampoo formulation, 20 minutes)?
The value was 3 ± 1 CFU.

What about the “Colony forming units” value (C. albicans (DSM 11948); 10 000 ppm in the formulation, 5 minutes) of the same substance?
Its value is 0.5 ± 0 CFU.

What about the “Colony forming units” value (C. albicans (DSM 11948); 10 000 ppm in the formulation, 10 minutes) of the same substance?
The value was 0 ± 0 CFU.

And the “Colony forming units” value (C. albicans (DSM 11948); 10 000 ppm in the formulation, 20 minutes)?
Its value is 0 ± 0 CFU.

And the “Colony forming units” value (C. albicans (DSM 11948); 10 000 ppm in the formulation, 60 minutes)?
The value was 0 ± 0 CFU.

And the “Colony forming units” value (C. albicans (DSM 11948); 500 ppm in the formulation, 5 minutes)?
The value was 1484 ± 28 CFU.

What about the “Colony forming units” value (C. albicans (DSM 11948); 500 ppm in the formulation, 10 minutes) of the same substance?
Its value is 1445 ± 38 CFU.

And the “Colony forming units” value (C. albicans (DSM 11948); 500 ppm in the formulation, 20 minutes)?
The value was 1262 ± 354 CFU.

What about the “Colony forming units” value (C. albicans (DSM 11948); 500 ppm in the formulation, 60 minutes) of the same substance?
Its value is 962 ± 738 CFU.

And the “Colony forming units” value (C. albicans (DSM 11948); 1000 ppm in the formulation, 5 minutes)?
The value was 863 ± 553 CFU.

And the “Colony forming units” value (C. albicans (DSM 11948); 1000 ppm in the formulation, 10 minutes)?
The value was 616 ± 76 CFU.

What about the “Colony forming units” value (C. albicans (DSM 11948); 1000 ppm in the formulation, 20 minutes) of the same substance?
The value was 251 ± 109 CFU.

And the “Colony forming units” value (C. albicans (DSM 11948); 1000 ppm in the formulation, 60 minutes)?
The value was 3.25 ± 1.8 CFU.

What about the “Colony forming units” value (C. albicans (DSM 11948); 2000 ppm in the formulation, 5 minutes) of the same substance?
Its value is 29 ± 23 CFU.

What about the “Colony forming units” value (C. albicans (DSM 11948); 2000 ppm in the formulation, 10 minutes) of the same substance?
Its value is 3.5 ± 3.5 CFU.

And the “Colony forming units” value (C. albicans (DSM 11948); 2000 ppm in the formulation, 20 minutes)?
Its value is 0.25 ± 0.4 CFU.

And the “Colony forming units” value (C. albicans (DSM 11948); 2000 ppm in the formulation, 60 minutes)?
Its value is 0 ± 0 CFU.

What about the “Colony forming units” value (C. albicans (DSM 11948); 5000 ppm in the formulation, 5 minutes) of the same substance?
The value was 1 ± 0.7 CFU.

What about the “Colony forming units” value (C. albicans (DSM 11948); 5000 ppm in the formulation, 10 minutes) of the same substance?
Its value is 0 ± 0 CFU.

What about the “Colony forming units” value (C. albicans (DSM 11948); 5000 ppm in the formulation, 20 minutes) of the same substance?
Its value is 0 ± 0 CFU.

What about the “Colony forming units” value (C. albicans (DSM 11948); 5000 ppm in the formulation, 60 minutes) of the same substance?
Its value is 0 ± 0 CFU.

What about the “Effect compared with zinc pyrithione and climbazole at different contact times” value (M. furfur) of the same substance?
Its value is “better properties than zinc pyrithione or climbazole”.
